Laboratory results as given in patent US4493845A, “Antibiotic AM-3603” (Kitasato Kenkyusho, priority 1980, dated 1985).
Converted amounts (≈) assume the structure as drawn. Where two headings read alike, the source gives them in different places.

Tests used:
Type in all cases: cell-based
Sclerotinia cinerea = test: Comparison of anti-phytopathogenic activity, MIC; conditions: Glucosepotato agar, 2-3 days
Piricularia oryzae = test: microbe, parasite or virus in culture; conditions: Glucosepotato agar, 2-3 days
Alternaria kikuchiana = test: Comparison of anti-phytopathogenic activity, MIC; conditions: Glucosepotato agar, 2-3 days
Pellicularia sasakii = test: Comparison of anti-phytopathogenic activity, MIC
Botrytis cinerea = test: Comparison of anti-phytopathogenic activity, MIC; conditions: Glucosepotato agar, 2-3 days
[1] = B, laboratory stock culture, Glucosepotato agar, 2-3 days
[2] = A, isolate from infected plant, Glucosepotato agar, 2-3 days

Compound	MIC (Sclerotinia cinerea; Sclerotinia, A, isolate from infected plant)	MIC (Sclerotinia cinerea; Sclerotinia, B, laboratory stock culture)	MIC (Piricularia oryzae; A, isolate from infected plant)	MIC (Piricularia oryzae; B, laboratory stock culture)	MIC (Alternaria kikuchiana; Alternaria kikuchiana, A, isolate from infected plant)	MIC (Alternaria kikuchiana; Alternaria kikuchiana, B, laboratory stock culture)	MIC (Pellicularia sasakii)	MIC (Pellicularia sasakii; [1])	MIC (Botrytis cinerea; Botrytis cinerea, A, isolate from infected plant)	MIC (Botrytis cinerea; Botrytis cinerea, B, laboratory stock culture)	MIC (Sclerotinia cinerea; A, isolate from infected plant)	MIC (Sclerotinia cinerea; B, laboratory stock culture)	MIC (Alternaria kikuchiana; A, isolate from infected plant)	MIC (Alternaria kikuchiana; B, laboratory stock culture)	MIC (Pellicularia sasakii; [2])	MIC (Botrytis cinerea; A, isolate from infected plant)	MIC (Botrytis cinerea; B, laboratory stock culture)
CN(CCC(N)CC(=O)NC1C=CC(n2ccc(N)nc2=O)OC1C(=O)O)C(=N)N (stereo not shown) [Blasticidin S]	50 µg/mL (≈ 118 µM)	25 µg/mL (≈ 59.2 µM)	> 100 µg/mL	25 µg/mL (≈ 59.2 µM)	50 µg/mL (≈ 118 µM)	12.5 µg/mL (≈ 29.6 µM)	> 100 µg/mL	> 100 µg/mL	50 µg/mL (≈ 118 µM)	100 µg/mL (≈ 237 µM)	–	–	–	–	–	–	–
C[C@@H](N)C(=O)N[C@H]1CO[C@H](O)[C@H](N)[C@H]1O [Prumycin]	–	–	> 100 µg/mL	100 µg/mL (≈ 456 µM)	–	–	–	> 100 µg/mL	–	–	1.56 µg/mL (≈ 7.12 µM)	6.25 µg/mL (≈ 28.5 µM)	> 100 µg/mL	50 µg/mL (≈ 228 µM)	> 100 µg/mL	100 µg/mL (≈ 456 µM)	50 µg/mL (≈ 228 µM)
Venturicidin	–	–	< 0.03 µg/mL	< 0.03 µg/mL	–	–	–	> 25 µg/mL	–	–	0.78 µg/mL	0.78 µg/mL	–	> 25 µg/mL	1.56 µg/mL	–	> 25 µg/mL
